In patent publication US20230136075A1, “TREATMENT FOR SEPSIS-INDUCED ORGAN DYSFUNCTION” (The Florey Institute of Neuroscience and Mental Health, priority 2020, published 2023):
Read-outs that look alike come from different tables or passages of the source.

Columns and labels:
[1] = tested on: ovine sepsis induced by intravenous infusion of live E. coli
Excerpt: Using this model, the inventors have investigated the effect of mega dose intravenous vitamin C therapy on various parameters indicative of the progression of sepsis in sheep (Merino ewes, 35-45 kg; 1.5-2.0 years old). Sheep were divided into two groups, a vitamin C (sodium ascorbate) therapy group and a vehicle group as a control. Experimental protocols were approved by the Animal Ethics Committee of the Florey Institute of Neuroscience and Mental Health under guidelines of the National Health and Medical Research Council of Australia.
Preparatory surgical procedures were carried out as described in Lankadeva et al. (2018b). Briefly, two preparatory surgical procedures were performed under general anaesthesia. First, a carotid artery was exteriorised into a skin fold to form a carotid arterial loop to facilitate cannulation for measurement of arterial pressure and heart rate, and for blood sampling. During the same surgical procedure, a flow probe was placed around the pulmonary artery to measure cardiac output. Animals were allowed 3-4 weeks of recovery. Second, a flow probe was implanted around a renal artery to measure renal blood flow, a renal vein was cannulated for blood sampling and fibre optic probes were inserted into the renal cortex, renal medulla (within kidneys) and parietal cortex (brain) to measure tissue perfusion, oxygen tension and temperature.
During the second surgical procedure cannulae were implanted in the carotid artery for arterial pressure measurement and blood sampling and the jugular vein for infusion of fluids, vasopressors, Escherichia coli, sodium ascorbate and blood sampling, and a Foley catheter was inserted into the bladder to collect urine and monitor hourly urine output.
Following three days of recovery from the second surgical procedure, the experimental protocol (see FIG. 1) was initiated in conscious sheep, to avoid the confounding effects of general anaesthesia. Animals daily food and water intake and urine output was measured on a 24-hour basis during the course of the 5-day protocol.
First, a 24-hour baseline period was commenced, which included measurement of systemic haemodynamics, renal and brain perfusion and oxygenation, arterial, central venous and renal venous blood gases and lactate, and urine output. Arterial blood and urine samples were collected at set times during the experimental period.
After establishment of the 24-hour baseline period, gram-negative sepsis was induced by intravenous infusion of live E. coli (isolated from a patient with sepsis at Austin Health) as described in Lankadeva et al. (2018b), administered as a loading (bolus) infusion of 2.8×10^9 colony-forming units (CFU) over 30-minutes followed by a continuous infusion of 1.26×10^9 CFU/h for 30.5 hours. No prophylactic antibiotics, sedative or analgesic agents were administered during this protocol. The description in the following paragraphs is with reference to the protocol as shown schematically in FIG. 1.
At 23 hours of sepsis, when sheep had fulfilled the clinical criteria for sepsis (i.e. established hypotension, tachycardia, fever, lung injury, tachypnoea, hyperlactatemia and stage 1-2 acute kidney injury) animals were resuscitated with 30 mL/kg balanced crystalloid sodium lactate (Hartmann's solution infused at approximately 2500 ml/hr) for 30 mins, from 23-23.5 hours of sepsis.
A blocked randomization design was used to allocate sheep to treatment with sodium ascorbate or vehicle.

[2] = tested on: septic human patient with severe COVID-19; assay: Mega-dose sodium ascorbate in one septic patient with severe COVID-19 (Example 2); assay type: in vivo
Excerpt: FIG. 6. Changes in systemic hemodynamics and renal function in response to mega-dose sodium ascorbate (Na Asc) treatment in one septic human patient with a severe case of COVID-19 disease 2019 (n=1). Norepinephrine dose (A), arterial blood oxygen tension (PO2) (filled squares) and inspired oxygen fraction (open circles) (B), mean arterial pressure (C), serum creatinine (D), heart rate (E), and urine output (F) are presented at pre-treatment (time 0), after a 30-min infusion of Na Asc bolus therapy (BT, 30 g), and then at hourly intervals during an infusion of Na Asc for 6.5 hr (4.6 g/hr).
A person was admitted to ICU with severe COVID-19 disease. The patient presented with acute respiratory distress syndrome (ARDS), vasodilatory shock and acute kidney injury, with a temperature of 40° C. The patient was intubated and placed on a ventilator. At noon, their urinary output was 10 ml/hr.
The patient (weighing approximately 80 kg) was administered 30 g of intravenous sodium ascorbate over 30 minutes beginning at 1 pm, followed by an infusion of 30 g sodium ascorbate over the next 6 hours.

[3] = tested on: ovine sepsis induced by intravenous infusion of live E. coli; assay: Vitamin C dose response in ovine sepsis (Example 3); assay type: in vivo
Method: The inventors then sought to determine the minimum dose of intravenous vitamin C required to reverse the pathophysiological features of sepsis and acute kidney injury, using the ovine sepsis model described in Example 1. Surgical procedures and initiation of gram negative sepsis were as described in Example 1.
At 24 hours of sepsis, sheep were randomised into one of four groups (n=2 each): (i) sodium ascorbate treatment at 1 g/kg for 7 hours; (ii) sodium ascorbate treatment at 2 g/kg for 7 hours; (iii) sodium ascorbate treatment at 3 g/kg for 7 hours; or (iv) fluid-matched vehicle. Norepinephrine doses were titrated to achieve a target blood pressure (75-80 mm Hg). All sodium ascorbate doses were given as a bolus followed by a continuous infusion. The bolus doses for the 1, 2 and […] treatments were, respectively, 0.133, 0.267 and 0.4 g/kg (5.3, 10.7 and 16 g for a 40 kg sheep. Sodium ascorbate was diluted in 1:1 ratio with 5% glucose prior to intravenous administration. At 31 hours of sepsis, animals were euthanised for tissue collection to facilitate molecular and histological investigations.

[4] = sodium ascorbate infusion, 24-31 hr of sepsis
[5] = sodium ascorbate infusion, 24-31 hr of sepsis, maintained for the following 2 days
[6] = 1, 2 and 3 g/kg sodium ascorbate compared, n=2 each
[7] = 3 g/kg sodium ascorbate for 7 hours, n=2

SMILES: O=C1O[C@H]([C@@H](O)CO)C([O-])=C1O.[Na+] [sodium ascorbate]
- clinical state of septic sheep ([1]; after infusion of sodium ascorbate for 3 hours, 0.5 g/kg bolus then 0.5 g/kg/hr iv, n=5): dramatically improved
- renal histology: acute tubular necrosis or interstitial fibrosis in renal cortex, corticomedullary junction or medulla ([1]; at 48 hours of recovery): no acute tubular necrosis or interstitial fibrosis
- dose of norepinephrine required to maintain mean arterial pressure ([1]; by 4 hours of sodium ascorbate infusion, n=5): not required in four of five sheep
- body temperature ([1]; during sodium ascorbate therapy, 24-31 hr of sepsis, septic fever 41.4±0.2): ~39 °C
- arterial blood potassium (hypokalemia) ([1]; infusion of sodium ascorbate): 3.14 ± 0.16 mmol/L
- arterial blood sodium (hypernatremia) ([1]; infusion of sodium ascorbate): 153.6 ± 1.7 mmol/L
- ischemia and hypoxia in the brain ([1]; sodium ascorbate 3.75 g/kg intravenous): a reversal of ischemia and hypoxia in the brain
- arterial blood pH [1, 4]: no effects
- cardiac output [1, 4]: significant, progressive decreases
- creatinine clearance [1, 4]: significantly increased
- fraction excretion of potassium [1, 4]: did not alter
- fractional excretion of sodium [1, 4]: significantly increased
- heart rate [1, 4]: significant, progressive decreases
- partial pressure of carbon dioxide [1, 4]: no effects
- plasma creatinine [1, 4]: corrected the increased plasma creatinine to below baseline levels
- renal blood flow [1, 4]: decreased toward healthy levels
- renal cortical tissue PO2 [1, 4]: Neither fluid bolus therapy, sodium ascorbate, nor norepinephrine had significant effects
- renal vascular conductance [1, 4]: decreased toward healthy levels
- level of peripheral vasoconstriction ([1]; sodium ascorbate infusion, 24-31 hr of sepsis, despite reduced norepinephrine dose): increased
- renal medullary PO2 [1, 5]: increased further throughout the infusion
- renal medullary perfusion [1, 5]: improved toward preseptic levels
- arterial lactate ([1]; sodium ascorbate infusion, 2.0±0.2 mmol/L at 23 hours of sepsis): significant, progressive reduction
- arterial PO2 ([1]; sodium ascorbate infusion, 80±3 at 23 hours of sepsis): 96.5±3.4 mm Hg
- increase in plasma aspartate aminotransferase during sepsis ([1]; sodium ascorbate treatment): significantly reduced
- increase in plasma bilirubin during sepsis ([1]; sodium ascorbate treatment): significantly reduced
- urine flow ([1]; the 2 days following sodium ascorbate infusion): remained at normal baseline levels
- urine flow ([1]; within 30 minutes of sodium ascorbate infusion, remained high throughout the infusion): greater than 10 mL/kg/hr
- urinary output ([2]; 1st hour post initiation of treatment, 10 ml/hr prior to treatment): 175 mL/h
- urinary output ([2]; 2nd hour post initiation of treatment): 160 mL/h
- urinary output ([2]; 3rd hour post initiation of treatment): 400 mL/h
- urinary output ([2]; 4th hour post initiation of treatment): 180 mL/h
- urinary output ([2]; 5th hour post initiation of treatment): 125 mL/h
- urinary output ([2]; 6th hour post initiation of treatment): 145 mL/h
- arterial blood oxygen levels ([2]; after 6 hours of sodium ascorbate treatment, 65 pre-treatment, FiO2:40%): 90 mm Hg
- time to extubation ([2]; after the treatment (intensive care day 15)): 12 days
- time to discharge from hospital without any complications ([2]; after treatment): 22 days
- lactate ([2]; during the treatment, decreased from 2.6): 1.9 mmol/L
- FiO2 ([2]; during the treatment, dropped from 0.45, positive end-expiratory pressure 14 cm H2O): 0.30
- heart rate ([2]; during the treatment, dropped from 130): 105 beats/min
- time in which blood pressure normalised, vasopressor requirements reduced and renal function improved ([2]; human patient with COVID-19, mega dose intravenous vitamin C): less than six hours
- urine flow ([2]; increase during the treatment, from 10): 400 mL/h
- plasma creatinine ([2]; over the course of sodium ascorbate administration (30 g over 30 minutes then 30 g infusion), 118 before treatment, n=1): 84 µmol/L
- norepinephrine infusion ([2]; over the course of sodium ascorbate administration, 8 before): 0 µg/min
- increase in urinary output [3, 6]: greatest in the 3 g/kg sodium ascorbate treatment group
- normalisation of body temperature [3, 6]: strongest in the 3 g/kg sodium ascorbate treatment group
- recovery in arterial PO2 [3, 6]: strongest in the 3 g/kg sodium ascorbate treatment group
- reduction in arterial blood lactate levels [3, 6]: greatest in the 3 g/kg sodium ascorbate treatment group
- norepinephrine dose requirements ([3]; 1, 2 and 3 g/kg sodium ascorbate for 7 hours, n=2 each): reduction in norepinephrine dose requirements with increased sodium ascorbate doses
- renal medullary oxygen levels [3, 7]: improvement
- vasopressor requirements for attaining target blood pressure (75-80 mm Hg) [3, 7]: Total withdrawal of vasopressor requirements
- adverse side-effects ([3]; during these pre-clinical studies): No adverse side-effects were observed
- dose required to provide optimal benefits towards reversing the pathophysiological features of sepsis ([3]; intravenous, based on dose response analysis and Examples 1 and 2): at least 3 g/kg
